Source: patent US10730849B2, “Benzo[b]thiophene compounds as STING agonists” (MERCK SHARP & DOHME CORP., priority 2016, dated 2020)

What was measured:
full-length HAQ STING = full-length HAQ STING (Homo sapiens (Human), UniProt Q86WV6, G230A/H232R/R293Q/R71H); experiment: 3H-cGAMP filtration binding assay (HAQ STING); settings: competition with tritiated cGAMP, HAQ STING membrane
Description: The ability of compounds to bind STING is quantified by the ability to compete with tritiated cGAMP ligand for human STING receptor membrane using a radioactive filter-binding assay. The binding assay employs STING receptor obtained from Hi-Five cell membranes overexpressing full-length HAQ STING prepared in-house and tritiated cGAMP ligand also purified in-house.
The ability of compounds to bind STING is quantified by their ability to compete with tritiated cGAMP ligand for human STING receptor membrane using a radioactive filter-binding assay. The binding assay employs STING receptor obtained from Trichoplusia ni cell membranes (T. ni; Expression Systems, cat #94-002F, www.exressionsystems.com) overexpressing full-length HAQ STING and tritiated cGAMP ligand.
The basic HAQ STING filtration assay protocol is as follows:
Compound and membrane then preincubated for 60 min at RT to allow compound binding to equilibrate. Following equilibration, 8 nM of [^3H]c-GAMP ligand was prepared by diluting into assay buffer, and 50 uL of this working stock was then manually added to each well of the assay plate. […] The filter plates were then dried at 55° C. for 30 min using a pressurized oven before 30 uL of ULTIMA GOLD F scintillate was added to each well. Tritium levels for each reaction well were then measured using a PerkinElmer TopCount plate reader.
(§1) After normalization to controls, the percent activity for each compound concentration was calculated by measuring the amount of remaining radioactivity. The plot of percent activity versus the log of compound concentration was fit with a 4-parameter dose response equation to calculate EC50 values.

full-length WT STING = full-length WT STING (Homo sapiens (Human), UniProt Q86WV6, H232R); experiment: 3H-cGAMP filtration binding assay (WT STING); settings: for EC50: competition with tritiated cGAMP, WT STING membrane; for inhibition at 20 µM: WT STING, compound at 20 uM
Description: The ability of compounds to bind STING is quantified by their ability to compete with tritiated cGAMP ligand for human STING receptor membrane using a radioactive filter-binding assay. The binding assay employs STING receptor obtained from Trichoplusia ni cell membranes (T. ni; Expression Systems, cat #94-002F, www.expressionsystems.com) overexpressing full-length WT STING and tritiated cGAMP ligand.
The basic WT STING filtration assay protocol is as follows:
The filter plates were then dried at 55° C. for 30 min using a pressurized VWR oven before 30 uL of ULTIMA GOLD F scintillate was added to each well. Tritium levels for each reaction well were then measured using a PerkinElmer TopCount plate reader.
as §1

THP1 cells = experiment: IFN-β secretion in THP1 cell culture (5 h); assay type: cell-based, human; settings: relative to 30 uM cGAMP
Description: The ability of compounds to stimulate the secretion of interferon-beta from THP1 cells was measured using a human IFN-3 AlphaLISA kit (Perkin Elmer, Cat. No. AL265F). The basic protocol is as follows:
The cell viability and count was ascertained using a Beckman Coulter V-Cell XR cell counter. The cells suspension was centrifuged at 200×g for 5 min at RT. Cells were resuspended to a density of 0.8×10^6/mL in 37° C. assay medium. Subsequent liquid transfers were performed using either a Matrix electronic multichannel pipette or an Agilent Bravo Automated Liquid Handling Platform.
The assay was started by dispensing 40 μL of the previously prepared cell suspension into the wells of the plate containing compounds. After 5 h incubation at 37° C., 5% CO2 in a humidified atmosphere, the plate of cells and compounds was centrifuged at 200×g for 5 min at RT. […] To these supernatant-containing wells was added 10 μL of 5× Anti-Analyte Acceptor beads ([…] of AlphaLISA HiBlock Buffer) and incubated for 30 min at RT while shaking on an orbital plate shaker. To each well was added 10 μL of 5× Biotinylated Antibody Anti-analyte (5 nM in AlphaLISA HiBlock Buffer) and incubated on an orbital plate shaker for 60 min at RT or overnight at 4° C. To each well was added 25 μL of 2× SA-Donor beads ([…] in AlphaLISA HiBlock Buffer) and incubated for 30-45 min at RT in the dark while shaking on an orbital plate shaker. The plate was then read on a Perkin Elmer Envision (λex=680 nm, […]). The percent effect of the AlphaLISA signal at each compound concentration was calculated based on 30 uM cGAMP positive controls and 0.3% DMSO negative controls. The plot of percent effect versus the log of compound concentration was fit with a 4-parameter concentration response equation to calculate EC50 values.
Compounds of the disclosure were evaluated for IFN-3 secretion in THP1 cell culture as described above.

Chain of full-length HAQ STING (Q86WV6 other isoform, or with tags, fused parts or gaps, stated change not applied): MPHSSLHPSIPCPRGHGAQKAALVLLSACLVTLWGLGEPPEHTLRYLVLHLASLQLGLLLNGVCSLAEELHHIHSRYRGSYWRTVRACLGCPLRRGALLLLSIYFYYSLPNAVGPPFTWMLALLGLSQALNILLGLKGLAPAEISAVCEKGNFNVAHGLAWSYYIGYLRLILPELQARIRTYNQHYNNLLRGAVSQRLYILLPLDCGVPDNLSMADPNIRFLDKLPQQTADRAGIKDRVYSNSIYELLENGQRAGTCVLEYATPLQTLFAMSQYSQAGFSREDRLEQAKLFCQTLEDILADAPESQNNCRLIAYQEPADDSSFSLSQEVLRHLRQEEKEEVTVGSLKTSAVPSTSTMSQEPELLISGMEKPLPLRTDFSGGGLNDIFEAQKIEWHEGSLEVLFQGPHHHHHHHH
Chain of full-length WT STING (Q86WV6 other isoform, or with tags, fused parts or gaps H232R (already in the parent)): as the sequence (Q86WV6 other isoform, or with tags, fused parts or gaps, stated change not applied) above, with H71R, A230G, Q293R counted along it

COc1cc2sc(C(=O)C[C@H](C)C(=O)O)cc2c(F)c1OC [Example 13, (S)-4-(4-fluoro-5,6-dimethoxybenzo[b]thiophen-2-yl)-2-methyl-4-oxobutanoic acid]
EC50 (full-length HAQ STING): 1.38 µM
EC50 (full-length WT STING): 2.08 µM
% Effect at 30 μM relative to 2’3’-cGAMP (THP1 cells): 228%

COc1cc2cc(C(=O)C[C@H](C)C(=O)O)sc2cc1Br [Example 15, (S)-4-(6-bromo-5-methoxybenzo[b]thiophen-2-yl)-2-methyl-4-oxobutanoic acid]
EC50 (full-length HAQ STING): 0.894 µM
EC50 (full-length WT STING): 0.894 µM
% Effect at 30 μM relative to 2’3’-cGAMP (THP1 cells): 115%

COc1cc2cc(C(=O)CCC(=O)O)sc2cc1OC [Example 16, 4-(5,6-dimethoxybenzo[b]thiophen-2-yl)-4-oxobutanoic acid]
EC50 (full-length HAQ STING): 1.72 µM
EC50 (full-length WT STING): 2.48 µM
% Effect at 30 μM relative to 2’3’-cGAMP (THP1 cells): 129%

COCC(CC(=O)c1cc2cc(OC)c(OC)cc2s1)C(=O)O (stereo not drawn) [Example 17, 4-(5,6-Dimethoxybenzo[b]thiophen-2-yl)-2-(methoxymethyl)-4-oxobutanoic acid]
EC50 (full-length HAQ STING): 5.87 µM
EC50 (full-length WT STING): 14.8 µM
% Effect at 30 μM relative to 2’3’-cGAMP (THP1 cells): 21%

C=Cc1cc2cc(C(=O)CCC(=O)O)sc2cc1OC [Example 18, 4-(6-Methoxy-5-vinylbenzo[b]thiophen-2-yl)-4-oxobutanoic acid]
EC50 (full-length HAQ STING): 12.5 µM
inhibition at 20 µM (full-length WT STING): 21%
% Effect at 30 μM relative to 2’3’-cGAMP (THP1 cells): 273%

COc1cc2sc(C(=O)CCC(=O)O)cc2cc1Br [Example 19, 4-(5-Bromo-6-methoxybenzo[b]thiophene-2-yl)-4-oxobutanoic acid]
EC50 (full-length HAQ STING): 9.7 µM
inhibition at 20 µM (full-length WT STING): 30%
% Effect at 30 μM relative to 2’3’-cGAMP (THP1 cells): 153%

C[C@@H](CC(=O)c1cc2cc(Cl)c(Cl)cc2s1)C(=O)O [Example 20]
EC50 (full-length HAQ STING): 10.7 µM
inhibition at 20 µM (full-length WT STING): 33%
% Effect at 30 μM relative to 2’3’-cGAMP (THP1 cells): 47%

CCc1cc2sc(C(=O)C[C@H](C)C(=O)O)cc2cc1OC [Example 21, (S)-4-(6-Ethyl-5-methoxybenzo[b]thiophen-2-yl)-2-methyl-4-oxobutanoic acid]
EC50 (full-length HAQ STING): 6.34 µM
EC50 (full-length WT STING): 14.3 µM
% Effect at 30 μM relative to 2’3’-cGAMP (THP1 cells): 162%

COc1cc2cc(C(=O)C[C@H](C)C(=O)O)sc2cc1C [Example 22, (S)-4-(5-methoxy-6-methylbenzo[b]thiophen-2-yl)-2-methyl-4-oxobutanoic acid]
EC50 (full-length HAQ STING): 8.81 µM
EC50 (full-length WT STING): 17.1 µM
% Effect at 30 μM relative to 2’3’-cGAMP (THP1 cells): 43%

COc1cc2cc(C(=O)CCC(=O)O)sc2cc1Cl [Example 23, 4-(6-Chloro-5-methoxybenzo[b]thiophen-2-yl)-4-oxobutanoic acid]
EC50 (full-length HAQ STING): 6.05 µM
inhibition at 20 µM (full-length WT STING): 37%
% Effect at 30 μM relative to 2’3’-cGAMP (THP1 cells): 191%

COc1cc2sc(C(=O)C[C@H](C)C(=O)O)cc2cc1Br [Example 24, (S)-4-(5-Bromo-6-methoxybenzo[b]thiophen-2-yl)-2-methyl-4-oxobutanoic acid]
EC50 (full-length HAQ STING): 2.64 µM
EC50 (full-length WT STING): 8.54 µM
% Effect at 30 μM relative to 2’3’-cGAMP (THP1 cells): 214%

COc1cc2sc(C(=O)CCC(=O)O)c(Cl)c2cc1OC [Example 27, 4-(3-chloro-5,6-dimethoxybenzo[b]thiophen-2-yl)-4-oxobutanoic acid]
EC50 (full-length HAQ STING): 13.2 µM
inhibition at 20 µM (full-length WT STING): 19%
% Effect at 30 μM relative to 2’3’-cGAMP (THP1 cells): 14%

COc1cc2sc(C(=O)C[C@H](C)C(=O)O)cc2cc1Cl [Example 28, (S)-4-(5-chloro-6-methoxybenzo[b]thiophen-2-yl)-2-methyl-4-oxobutanoic acid]
EC50 (full-length HAQ STING): 1.95 µM
EC50 (full-length WT STING): 9.26 µM
% Effect at 30 μM relative to 2’3’-cGAMP (THP1 cells): 86%

Cc1cc2cc(C(=O)C[C@H](C)C(=O)O)sc2cc1Br [Example 29, (S)-4-(6-bromo-5-methylbenzo[b]thiophen-2-yl)-2-methyl-4-oxobutanoic acid]
EC50 (full-length HAQ STING): 13.8 µM
inhibition at 20 µM (full-length WT STING): 16%
% Effect at 30 μM relative to 2’3’-cGAMP (THP1 cells): 9%

COc1cc2sc(C(=O)C[C@H](C)C(=O)O)cc2cc1F [Example 30, (S)-4-(5-fluoro-6-methoxybenzo[b]thiophen-2-yl)-2-methyl-4-oxobutanoic acid]
EC50 (full-length HAQ STING): 5.05 µM
EC50 (full-length WT STING): 18.7 µM
% Effect at 30 μM relative to 2’3’-cGAMP (THP1 cells): 15%

C[C@@H](CC(=O)c1cc2cc(Cl)c(Br)cc2s1)C(=O)O [Example 32, (S)-4-(6-bromo-5-chlorobenzo[b]thiophen-2-yl)-2-methyl-4-oxobutanoic acid]
EC50 (full-length HAQ STING): 3.63 µM
EC50 (full-length WT STING): 17 µM
% Effect at 30 μM relative to 2’3’-cGAMP (THP1 cells): 24%

CCOc1cc2sc(C(=O)C[C@H](C)C(=O)O)cc2cc1Cl [Example 33, (S)-4-(5-chloro-6-ethoxybenzo[b]thiophen-2-yl)-2-methyl-4-oxobutanoic acid]
EC50 (full-length HAQ STING): 6.46 µM
inhibition at 20 µM (full-length WT STING): 30%
% Effect at 30 μM relative to 2’3’-cGAMP (THP1 cells): 25%

Cc1cc2sc(C(=O)C[C@H](C)C(=O)O)cc2cc1Br [Example 34, (S)-4-(5-bromo-6-methylbenzo[b]thiophen-2-yl)-2-methyl-4-oxobutanoic acid]
EC50 (full-length HAQ STING): 10.4 µM
inhibition at 20 µM (full-length WT STING): 18%
% Effect at 30 μM relative to 2’3’-cGAMP (THP1 cells): 34%

COc1cc2cc(C(=O)CC(C)C(=O)O)sc2cc1OC (stereo not drawn) [Example 35, 4-(5,6-dimethoxybenzo[b]thiophen-2-yl)-2-methyl-4-oxobutanoic acid]
EC50 (full-length HAQ STING): 5.55 µM
EC50 (full-length WT STING): 7.67 µM
% Effect at 30 μM relative to 2’3’-cGAMP (THP1 cells): 57%

C#Cc1cc2cc(C(=O)CCC(=O)O)sc2cc1OC [Example 36, 4-(5-Ethynyl-6-methoxybenzo[b]thiophen-2-yl)-4-oxobutanoic acid]
EC50 (full-length HAQ STING): 14.4 µM
inhibition at 20 µM (full-length WT STING): 9%
% Effect at 30 μM relative to 2’3’-cGAMP (THP1 cells): 11%

C=Cc1cc2cc(C(=O)C[C@H](C)C(=O)O)sc2cc1OC [Example 41, (S)-4-(6-methoxy-5-vinylbenzo[b]thiophen-2-yl)-2-methyl-4-oxobutanoic acid]
EC50 (full-length HAQ STING): 5.7 µM
EC50 (full-length WT STING): 14.7 µM
% Effect at 30 μM relative to 2’3’-cGAMP (THP1 cells): 312%

COc1cc2cc(C(=O)C[C@H](C)C(=O)O)sc2cc1O [Example 43, (S)-4-(6-hydroxy-5-methoxybenzo[b]thiophen-2-yl)-2-methyl-4-oxobutanoic acid]
EC50 (full-length HAQ STING): 1.2 µM
EC50 (full-length WT STING): 4.11 µM
% Effect at 30 μM relative to 2’3’-cGAMP (THP1 cells): 56%
